Structures can show the parent of a compound that is named as a salt. Where two headings read alike, the source gives them in different places.

One test has as its system nanobacteria. As to the kind of experiment: Antibiotic sensitivity test by Minimal Inhibition Concentration (MIC), 96-well plates, absorbance at 650 nm. It counts as cell-based. Here is the method: Antibiotic sensitivity tests were carried out by measuring Minimal Inhibition Concentration (MIC), a common practice in clinical microbiology.
The tests were performed in 96-well plates. DMEM (commercial cell culture medium) containing 10% gamma-irradiated fetal bovine serum (FBS)(dose about 3 Mrads; this treatment inactivates nanobacteria in the serum so that the basic medium is sterile) was used as the basic culture medium. These components are commercially available, e.g., from Gibco. The antibiotic stock solutions were sterile filtered through 0.2 micrometer filters. The stock solutions were then serially diluted (into the basal culture medium) to provide a final starting concentration of 0.5 mg/ml and 1:2 dilutions therefrom, unless otherwise specified. For each antibiotic three parallel tests were performed using all the antibiotic dilutions and, additionally, positive and negative control experiments. […] 100 µl of dilutions of the nanobacteria inoculum were added to all wells except the negative controls. The plates were incubated at mammalian cell culture conditions (37° Celsius, 5% carbon dioxide, 95% humid air). The absorbance values at 650 nm were recorded by using an ELISA reader at the start, and at 4, 8, 12, 14 days. […] Calculations were based on absorbance curves where absorbance was plotted against concentration of the antibiotic.

Another test has as its system SF-nanobacteria. The test is described as follows: Chemical disinfection of SF-nanobacteria. It counts as cell-based. As to conditions: for Resistance of SF-nanobacteria to chemical disinfectants (survival): room temperature, survival after subculture compared to diluent only. The arrangement: key to Resistance of SF-nanobacteria to chemical disinfectants (survival) / partial or total detachment on exposure: +++: No effect; ++: Reduced survival; +: Markedly reduced survival; - : No survival; * = partial or total detachment on exposure. An excerpt:
The cultures were exposed to the disinfectants after removal of the culture medium. For the autoclaving, UV, microwave, and drying treatments, the medium was removed and an equal amount of PBS used instead. For the heat treatments, the SF-nanobacteria were harvested by scraping the culture vessel followed by centrifugation of the medium. The obtained pellet was suspended in PBS and used in the test. After treatments the SF-nanobacteria were subcultured in DMEM medium and the growth followed by light microscopy to see the adherence and typical mineralization.
The concentrations of the chemicals used were those commonly used for disinfection or as instructed by the manufacturer. The chemicals included 70% ethanol, 2% glutaraldehyde, 4% formaldehyde, 0.5% hypochlorite, 3% hydrogen peroxide, 1M hydrochloric acid (HCl), 1M sodium hydroxide (NaOH) , 1% sodium dodecyl sulfate (SDS), 1% Tween 80, 1 % Triton X-100, 3M guanidium-hydrochloride, 3M urea, 1% Virkon® (Antec International Ltd., Suffolk, England; 100% product contains 50% potassium persulfate, 5% sulfaminoic acid), 1.5% Erifenol® (Orion OY, Finland; 100% product contains <5% NaOH, <5% o-benzyl-p-chlorophenol, 5-15% p-chloro-m-cresol), 1% Klorilli® (Orion OY, Finland; 100% product contains sodium metasilicate, sodium N-chloro-p-toluenesulfonamide-3-hydrate and 20,000 ppm active chlorine), and 3% Buraton® (Schülke & Mayr, Germany; 100% product contains 4.5% formaldehyde, 6.8% glyoxal, 1.5% glyoxylic acid, 6% dimethylaurylbenzyl-ammonium chloride). The dilutions to be used were freshly prepared on the day of exposure in sterile distilled water. As a positive control, only diluent was used. Negative control contained only culture medium.
The SF-nanobacteria were exposed to the chemicals for 10 and 30 minutes at room temperature after removal of the culture medium. After exposure, the disinfectant solution was removed and fresh medium added (with a neutralization step in the case of HCl and NaOH). If any significant deattachment occurred, nanobacteria were recovered by centrifugation, and subcultured. The exposed serum-free cultures were passaged 1:10 after 48 hours and the growth was followed by light microscopy for three weeks.

[1] abbreviates: light or radiation study, 288 h; read-out: MIC 50.
The mark [2] stands for this setting: 50% inhibition, 12 day time point, DMEM with 10% gamma-irradiated FBS.
The mark [3] stands for this setting: light or radiation study, 288 h; 90% inhibition, 12 day time point, DMEM with 10% gamma-irradiated FBS; read-out: MIC 90.
[4] abbreviates: short chain organic acids tested later in culture tests; read-out: MIC50 values.

`NC(=O)c1cnccn1` [Pyrazinamide]: the IC50 in the test on nanobacteria (setting [1]) is greater than 500 µg/mL.

Regarding `O=CCCCC=O` [2% glutaraldehyde, glutaraldehyde], the “Resistance of SF-nanobacteria to chemical disinfectants (survival)” value (shortened to “Resistance of SF-nanobacteria”) with SF-nanobacteria (Exposure time 10 min) and in the test on SF-nanobacteria (Exposure time 30 min) was “+++” throughout.

For `CC[C@@H](CO)NCCN[C@@H](CC)CO` [Ethambutol], the IC50 with nanobacteria (setting [1]) is greater than 500 µg/mL.

Neomycin: the “MIC 50” value against nanobacteria (setting [2]) was 16 mg/L. Further, in the test on nanobacteria (90% inhibition, 12 day time point, DMEM with 10% gamma-irradiated FBS), the “MIC 90” value worked out at 30 mg/L. Also, the “antinanobacterial effect in the in vitro test (in words)” value (shortened to “antinanobacterial effect”) in the test on nanobacteria (in vitro MIC test) is recorded as “bacteriostatic effects at high antibiotic concentrations”.

Take `O=C(O)CC(O)(CC(=O)O)C(=O)O` [Citrate]: in the test on nanobacteria (288 h; 90% inhibition, 12 day time point; read-out: MIC 90), the IC90 was found to be 1 mM. The IC50 in the test on nanobacteria (288 h; read-out: MIC 50) stood at 0.2 mM. The “antinanobacterial effect” value in the test with nanobacteria (in vitro MIC test) is “effective antinanobacterial agent”.

With `CC(=O)Oc1ccccc1C(=O)O` [Acetylsalicylic acid], in the test on nanobacteria (288 h; read-out: MIC 50), the IC50 turned out to be 500 µg/mL. Besides, in the test with nanobacteria (in vitro MIC test), the “antinanobacterial effect” value is given as “weak”.

Regarding `CO/N=C(\C(=O)N[C@@H]1C(=O)N2C(C(=O)O)=C(COC(N)=O)CS[C@H]12)c1ccco1` [Cefuroxim], the IC50 in the test on nanobacteria (setting [1]) is […].

`CCCCCCCCCCCCOS(=O)(=O)[O-].[Na+]` [1 % SDS, sodium dodecyl sulfate]: the “Resistance of SF-nanobacteria” value in the test with SF-nanobacteria (Exposure time 10 min) and in the test on SF-nanobacteria (Exposure time 30 min) was “+++” throughout.

On to `O=C(O)CN(CCOCCOCCN(CC(=O)O)CC(=O)O)CC(=O)O` [EGTA], for which, in the test on nanobacteria (in vitro MIC test), the “antinanobacterial effect” value was “antinanobacterial effects”.

In the case of hypochlorite [0.5% hypochlorite], the “Resistance of SF-nanobacteria” value in the test on SF-nanobacteria (Exposure time 10 min) and in the test on SF-nanobacteria (Exposure time 30 min) was “+++” throughout.

For the compound `C=O` [4% formaldehyde, formaldehyde], the “Resistance of SF-nanobacteria” value with SF-nanobacteria (Exposure time 10 min) and in the test with SF-nanobacteria (Exposure time 30 min) was “+++” throughout.

Consider `N=C(N)N` [3M Guanidium HCl, guanidium-hydrochloride], for which the “Resistance of SF-nanobacteria” value with SF-nanobacteria (Exposure time 30 min) amounted to 0. Besides, the “effect of chemical disinfection on SF-nanobacteria (in words)” value in the test on SF-nanobacteria (exposure at room temperature, then subculture) was “deattachment”.

With hydrogen peroxide [3% H2O2], the “Resistance of SF-nanobacteria” value with SF-nanobacteria (Exposure time 10 min) and in the test on SF-nanobacteria (Exposure time 30 min) was “+++” in each case.

With `CN(C)[C@@H]1C(O)=C(C(N)=O)C(=O)[C@@]2(O)C(O)=C3C(=O)c4c(O)cccc4[C@@](C)(O)[C@H]3C[C@@H]12` [Tetracycline], the IC50 in the test on nanobacteria (light or radiation study, 288 h, read-out: MIC 50) was 0.3 µg/mL. The IC90 in the test on nanobacteria (light or radiation study, 288 h, read-out: MIC 90) worked out at 1.3 µg/mL.

For `CO[C@H]1/C=C/O[C@@]2(C)Oc3c(C)c(O)c4c(O)c(c(/C=N/N5CCN(C)CC5)c(O)c4c3C2=O)NC(=O)/C(C)=C\C=C\[C@H](C)[C@H](O)[C@@H](C)[C@@H](O)[C@@H](C)[C@H](OC(C)=O)[C@@H]1C` [Rifampicin], the IC50 in the test with nanobacteria (setting [1]) was greater than 500 µg/mL.

Regarding `NC(N)=O` [3M Urea, urea], the “Resistance of SF-nanobacteria” value with SF-nanobacteria (Exposure time 10 min) and with SF-nanobacteria (Exposure time 30 min) was “+++” in each case.

Turning to `CC[C@H]1OC(=O)[C@H](C)[C@@H](O[C@H]2C[C@@](C)(OC)[C@@H](O)[C@H](C)O2)[C@H](C)[C@@H](O[C@@H]2O[C@H](C)C[C@H](N(C)C)[C@H]2O)[C@](C)(OC)C[C@@H](C)C(=O)[C@H](C)[C@@H](O)[C@]1(C)O` [Clarithromycin], the IC50 in the test on nanobacteria (setting [1]) was greater than 500 µg/mL.

On to `CCCCCCCC/C=C\CCCCCCCC(=O)OCCOCC(OCCO)C1OCC(OCCO)C1OCCO` (stereo not shown) [1 % Tween 80, Tween 80], for which the “Resistance of SF-nanobacteria” value in the test on SF-nanobacteria (Exposure time 10 min) and with SF-nanobacteria (Exposure time 30 min) was “+++” in each case.

On to Penicillin, for which the “MIC 50” value against nanobacteria (setting [2]) is greater than 500 mg/L.

As to `O=C(N[C@H](CO)[C@H](O)c1ccc([N+](=O)[O-])cc1)C(Cl)Cl` [Chloramphenicol], the IC50 in the test with nanobacteria (setting [1]) is greater than 500 µg/mL.

Turning to `O=P(O)(O)C(Cl)(Cl)P(=O)(O)O` [Chlodronate], the “antinanobacterial effect” value in the test on nanobacteria (in vitro MIC test) is “bacteriocidic effect”. For the same compound, in the test with nanobacteria (setting [3]), the IC90 was found to be 0.5 µg/mL. The IC50 in the test on nanobacteria (setting [1]) is 0.1 µg/mL.

On to `CC(O)(P(=O)(O)O)P(=O)(O)O` [Ethidronate], for which, in the test on nanobacteria (in vitro MIC test), the “antinanobacterial effect” value was “bacteriocidic effect”. In the test with nanobacteria (setting [3]), the IC90 was found to be 0.5 µg/mL. Also, the IC50 in the test on nanobacteria (setting [1]) worked out at 0.1 µg/mL.

Turning to `[H]/N=C(/N)N[C@H]1[C@H](O)[C@@H](O)[C@H](O[C@@H]2O[C@@H](C)[C@](O)(C=O)[C@H]2O[C@@H]2O[C@@H](CO)[C@H](O)[C@@H](O)[C@@H]2NC)[C@@H](N/C(N)=N\[H])[C@@H]1O` [Streptomycin], the “antinanobacterial effect” value in the test on nanobacteria (in vitro MIC test) is given as “bacteriostatic effects at high antibiotic concentrations”. The IC50 with nanobacteria (setting [1]) is greater than 500 µg/mL.

As to `CC(=O)OCC1=C(C(=O)O)N2C(=O)[C@@H](NC(=O)Cc3cccs3)[C@H]2SC1` [Cephalothin], the IC50 with nanobacteria (setting [1]) was greater than 500 µg/mL.

Take `CCC[C@@H]1C[C@@H](C(=O)N[C@@H]([C@H]2O[C@H](SC)[C@H](O)[C@@H](O)[C@H]2O)[C@@H](C)O)N(C)C1` [Lincomycin]: in the test with nanobacteria (setting [1]), the IC50 was greater than 500 µg/mL.

In the case of `CC1(C)S[C@@H]2[C@H](NC(=O)[C@H](N)c3ccccc3)C(=O)N2[C@H]1C(=O)O` [Ampicillin], the “antinanobacterial effect” value in the test on nanobacteria (in vitro MIC test) is “weak bacteriostatic effect”. Also, the IC50 in the test with nanobacteria (setting [1]) was 500 µg/mL.

In the case of `CN[C@H](CC(C)C)C(=O)N[C@H]1C(=O)N[C@@H](CC(N)=O)C(=O)N[C@H]2C(=O)N[C@H]3C(=O)N[C@H](C(=O)N[C@H](C(=O)O)c4cc(O)cc(O)c4-c4cc3ccc4O)[C@H](O)c3ccc(c(Cl)c3)Oc3cc2cc(c3O[C@@H]2O[C@H](CO)[C@@H](O)[C@H](O)[C@H]2O[C@H]2C[C@](C)(N)[C@H](O)[C@H](C)O2)Oc2ccc(cc2Cl)[C@H]1O` [Vancomycin], the “antinanobacterial effect” value with nanobacteria (in vitro MIC test) is “effective bacteriostat”. For the same compound, the IC90 with nanobacteria (setting [3]) is 250 µg/mL. In addition, the IC50 in the test with nanobacteria (setting [1]) turned out to be 130 µg/mL.

Take `Nc1ccc(C(=O)O)c(O)c1` [para-aminosalicylic acid]: in the test on nanobacteria, the “MIC value compared with acetylsalicylic acid” value is listed as “identical with acetylsalicylic acid”.

For `CC1=CC(=O)c2ccccc2C1=O` [Vitamin K (Menadion), Menadion], the “antinanobacterial effect” value in the test with nanobacteria (in vitro MIC test) is “toxic to nanobacteria”. In addition, in the test on nanobacteria (setting [1]), the IC50 came to 2 µg/mL.

As for `CC(O)C(=O)O` (stereo not shown) [lactic acid], the IC50 in the test with nanobacteria (setting [4]) was 10 to 50 mM.

As to Vitamin D, in the test with nanobacteria (50% inhibition, 12 day time point; read-out: MIC 50), the IC50 was greater than 0.025 mM. Moreover, the “antinanobacterial effect” value in the test with nanobacteria (in vitro MIC test) is “very weak inhibitory effect”.

Regarding `COc1cc(Cc2cnc(N)nc2N)cc(OC)c1OC` [Trimethoprim], the “antinanobacterial effect” value in the test with nanobacteria (in vitro MIC test) is “bacteriostatic”. In the test with nanobacteria (setting [3]), the IC90 was found to be 5 µg/mL. The IC50 with nanobacteria (setting [1]) is 0.7 µg/mL.

Take `O=C1O[C@H]([C@@H](O)CO)C(O)=C1O` [ascorbic acid]: in the test on nanobacteria (setting [4]), the IC50 is 10 to 50 mM.

Regarding `O=C1CN(/N=C/c2ccc([N+](=O)[O-])o2)C(=O)N1` [Nitrofurantoin], the IC90 in the test with nanobacteria (setting [3]) amounted to 1.5 µg/mL. In addition, the IC50 in the test with nanobacteria (setting [1]) came to 0.6 µg/mL.

In the case of `Cc1ncc([N+](=O)[O-])n1CCO` [Metronidasole], the “MIC 50” value against nanobacteria (setting [2]) is greater than 500 mg/L.

Turning to Polymyxin B, the “MIC 50” value in the test with nanobacteria (setting [2]) is greater than 500 mg/L.

Take `CC(=O)O` [acetic acid]: the IC50 in the test with nanobacteria (setting [4]) was in the range of 10 to 50 mM.

The values above are taken from EP1094711B1, “METHODS FOR ERADICATION OF NANOBACTERIA” (Nanobac Oy, priority 1998, dated 2000).
